From patent US12545681B2, “Compound used as RET kinase inhibitor and application thereof” (TYK Medicines, Inc., priority 2020, dated 2026)
Residue numbers refer to the chain shown, from its start.

Experiments:
Ba/F3-KIF5B-RET cells = assay: In vivo efficacy study, subcutaneous Ba/F3-KIF5B-RET tumor in nude mice; design: species or system BALB/c nude mice; conditions: 10 mg/kg P.O. BID x 3 weeks
Description: Cell culture: Ba/F3-KIF5B-RET cell line was cultured with 1640 medium (Biological Industries)+10%/f fetal bovine serum (BI)+1% double antibody (Penicillin Streptomycin solution, Corning, USA) at 37° C. with 5% CO2. Two passages were performed for one week. When the cell saturation was 80%-90% and the number reached the required level, the cells were collected, counted and inoculated.
Animals: BALB/c nude mice, female, 6-8 weeks of age, weighing 18-22 g. A total of 18 mice were required, provided by Beijing Vital River Laboratory Animal Technology Co., Ltd.
Tumor inoculation: 0.2 ml (2×106) Ba/F3-KIF5B-RET cells (plus stromal gel, volume ratio 1:1) were inoculated subcutaneously on the right posterior dorsum of each mouse, and group dosing was started when the average tumor volume reached about 150-200 mm^3.
Experimental index: Tumor volume and body weight were measured twice a week. Tumor volume was measured by vernier calipers with the formula TV=0.5 a×b2, where a is the long diameter of the tumor and b is the short diameter of the tumor.

Ba/F3-KIF5B-RET = target: T1, Ba/F3-KIF5B-RET (Homo sapiens, UniProt P07949); assay: Cell anti-proliferation (CellTiter-Glo), Ba/F3-KIF5B-RET cells; type: cell-based; conditions: for IC50: cell viability, 72 h incubation, CellTiter-Glo
T1 construct: KIF5B (fusion partner, N-terminal part of kinesin-1 heavy chain, P33176); host or cells: Ba/F3 (murine pro-B cells); the other entry of the earlier key: KIF5B (P33176, Kinesin-1 heavy chain)
T1 sequence (P07949 713-1063 limits assumed): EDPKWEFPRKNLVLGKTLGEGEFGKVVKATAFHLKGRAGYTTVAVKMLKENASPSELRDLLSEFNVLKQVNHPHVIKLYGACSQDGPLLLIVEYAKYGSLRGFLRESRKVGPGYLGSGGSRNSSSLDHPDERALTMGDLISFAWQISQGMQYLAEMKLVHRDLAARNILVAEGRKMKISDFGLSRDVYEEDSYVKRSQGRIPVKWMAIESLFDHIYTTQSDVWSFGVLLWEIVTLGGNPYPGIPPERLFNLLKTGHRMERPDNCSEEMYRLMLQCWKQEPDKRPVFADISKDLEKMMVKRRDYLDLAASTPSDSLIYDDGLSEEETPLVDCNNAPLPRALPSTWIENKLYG
Description: (§1) Ba/F3-KIF5B-RET, Ba/F3-KIF5B-RET-V804L and Ba/F3-KIF5B-RET-V804M cells were constructed by PreceDo Pharmaceuticals Co., Ltd.
(§2) Ba/F3-KIF5B-RET, Ba/F3-KIF5B-RET-V804L and Ba/F3-KIF5B-RET-V804M medium: RPMI-1640+10% FBS+1% P/S.
(§3) A 1000×solution of the compound was prepared with DMSO, the compound was diluted to 20 times to obtain the final concentration with a growth medium, and 2 μl 1000×cpd was added to 98 μl growth medium.
(§4) Cells were centrifuged and resuspended with growth medium and cell counting was performed using a cell counter. The cell suspension was diluted with growth medium to the desired concentration. 95 uL of the diluted cell suspension was taken out to a 96-well plate. 5 μL of 20×compound solution was added to the 96-well plate to a final DMSO concentration of 0.1% per well. The 96-well plate was incubated for 72 h at 37° C. with 5% CO2.
(§5) The 96-well plate was equilibrated to room temperature before the assay, 50 μl of CellTiter-Glo® Reagent was added to each well, the cells were fully lysed by shaking for 2 minutes on a shaker, incubated for 10 minutes at room temperature, and Paradigm was used to detect and record the […] readings.
(§6) Cell viability was analyzed using Graphpad 7.0 software according to the formula Cell viability (CV %)=(RLU compound−RLU blank)/(RLU control−RLU blank)*100%, and the corresponding IC50 data were calculated, in Table 1, the following names are used: <10.00 nM=A; 10.01-50.0 nM=B; >50 nM=C.

Ba/F3-KIF5B-RET-V804L = target: T2, Ba/F3-KIF5B-RET-V804L (Homo sapiens, UniProt P07949, V804L); assay: Cell anti-proliferation (CellTiter-Glo), Ba/F3-KIF5B-RET-V804L cells; type: cell-based; conditions: cell viability, 72 h incubation
T2 construct: KIF5B (fusion partner, N-terminal part of kinesin-1 heavy chain, P33176); host or cells: Ba/F3 (murine pro-B cells); the other entry of the earlier key: KIF5B (P33176, Kinesin-1 heavy chain)
T2 sequence (P07949 713-1063 V804L limits assumed): T1 sequence (P07949 713-1063 limits assumed) with V92L
Description: as §1, §2, §3, §4, §5, §6

Ba/F3-KIF5B-RET-V804M = target: T3, Ba/F3-KIF5B-RET-V804M (Homo sapiens, UniProt P07949, V804M); assay: Cell anti-proliferation (CellTiter-Glo), Ba/F3-KIF5B-RET-V804M cells; type: cell-based; conditions: cell viability, 72 h incubation
T3 construct: KIF5B (fusion partner, N-terminal part of kinesin-1 heavy chain, P33176); host or cells: Ba/F3 (murine pro-B cells); the other entry of the earlier key: KIF5B (P33176, Kinesin-1 heavy chain)
T3 sequence (P07949 713-1063 V804M limits assumed): T1 sequence (P07949 713-1063 limits assumed) with V92M
Description: as §1, §2, §3, §4, §5, §6

Compound	IC50 (Ba/F3-KIF5B-RET)	IC50 (Ba/F3-KIF5B-RET-V804L)	IC50 (Ba/F3-KIF5B-RET-V804M)	other results
CO[C@]1(C(=O)N[C@@H](C)c2ccc(-n3cc(F)cn3)nc2)CC[C@H](c2nc(Nc3cc(C)[nH]n3)c3cnn(C)c3n2)CC1 [Compound C1]	< 10 nM	< 10 nM	< 10 nM	Tumor Volume(mm^3) 0 day (Ba/F3-KIF5B-RET cells; 0 day): 168.34 mm^3; Tumor Volume(mm^3) 2 days (Ba/F3-KIF5B-RET cells; 2 days): 162.57 mm^3; Tumor Volume(mm^3) 5 days (Ba/F3-KIF5B-RET cells; 5 days): 139.55 mm^3; Tumor Volume(mm^3) 9 days (Ba/F3-KIF5B-RET cells; 9 days): 189.12 mm^3; Tumor Volume(mm^3) 12 days (Ba/F3-KIF5B-RET cells; 12 days): 222.35 mm^3; Tumor Volume(mm^3) 16 days (Ba/F3-KIF5B-RET cells; 16 days): 203.41 mm^3; Tumor Volume(mm^3) 19 days (Ba/F3-KIF5B-RET cells; 19 days): 199.75 mm^3; Tumor Volume(mm^3) 22 days (Ba/F3-KIF5B-RET cells; 22 days): 199.64 mm^3
CO[C@]1(C(=O)N[C@@H](C)c2ccc(-n3cc(F)cn3)nc2)CC[C@H](c2nc(Nc3cc(C)[nH]n3)c3cnn(COCC[Si](C)(C)C)c3n2)CC1 [Compound C2]	> 50 nM	10 to 50 nM	> 50 nM	–
[2H]C([2H])([2H])n1ncc2c(Nc3cc(C)[nH]n3)nc([C@H]3CC[C@](OC)(C(=O)N[C@@H](C)c4ccc(-n5cc(F)cn5)nc4)CC3)nc21 [Compound C3]	< 10 nM	< 10 nM	< 10 nM	–
CCn1ncc2c(Nc3cc(C)[nH]n3)nc([C@H]3CC[C@](OC)(C(=O)N[C@@H](C)c4ccc(-n5cc(F)cn5)nc4)CC3)nc21 [Compound C4]	< 10 nM	< 10 nM	< 10 nM	–
CCn1ncc2c(Nc3cc(C)[nH]n3)nc([C@H]3CC[C@](OC)(C(=O)N[C@@H](C)c4cnc(-n5cc(F)cn5)cn4)CC3)nc21 [Compound C5]	< 10 nM	< 10 nM	< 10 nM	–
CO[C@]1(C(=O)N[C@@H](C)c2ccc(-n3cc(F)cn3)nc2)CC[C@H](c2nc(Nc3cc(C)[nH]n3)c3cnn(CC(F)F)c3n2)CC1 [Compound C6]	< 10 nM	< 10 nM	< 10 nM	–
CO[C@]1(C(=O)N[C@@H](C)c2cnc(-n3cc(F)cn3)cn2)CC[C@H](c2nc(Nc3cc(C)[nH]n3)c3cnn(CC(F)F)c3n2)CC1 [Compound C7]	< 10 nM	< 10 nM	< 10 nM	–
CO[C@]1(C(=O)N[C@@H](C)c2cnc(-n3cc(F)cn3)cn2)CC[C@H](c2nc(Nc3cc(C)[nH]n3)c3cnn(C)c3n2)CC1 [Compound C8]	< 10 nM	< 10 nM	< 10 nM	–
[2H]C([2H])([2H])n1ncc2c(Nc3cc(C)[nH]n3)nc([C@H]3CC[C@](OC)(C(=O)N[C@@H](C)c4cnc(-n5cc(F)cn5)cn4)CC3)nc21 [Compound C9]	< 10 nM	< 10 nM	< 10 nM	–
COCCn1ncc2c(Nc3cc(C)[nH]n3)nc([C@H]3CC[C@](OC)(C(=O)N[C@@H](C)c4cnc(-n5cc(F)cn5)cn4)CC3)nc21 [Compound C10]	< 10 nM	< 10 nM	10 to 50 nM	–
CO[C@]1(C(=O)N[C@@H](C)c2cnc(-n3cc(F)cn3)cn2)CC[C@H](c2nc(Nc3cc(C)[nH]n3)c3cnn(C4CC(F)(F)C4)c3n2)CC1 [Compound C11]	10 to 50 nM	10 to 50 nM	10 to 50 nM	–
CO[C@]1(C(=O)N[C@@H](C)c2cnc(-n3cc(F)cn3)cn2)CC[C@H](c2nc(Nc3cc(C)[nH]n3)c3cnn(CC4CC4)c3n2)CC1 [Compound C12]	< 10 nM	< 10 nM	10 to 50 nM	–
CCn1ncc2c(Nc3cc(C)[nH]n3)nc([C@H]3CC[C@](OC)(C(=O)N[C@@H](C)c4cnc(-n5cc(F)cn5)s4)CC3)nc21 [Compound C13]	< 10 nM	< 10 nM	10 to 50 nM	–
CO[C@]1(C(=O)N[C@@H](C)c2cnc(-n3cc(F)cn3)s2)CC[C@H](c2nc(Nc3cc(C)[nH]n3)c3cnn(C4CC4)c3n2)CC1 [Compound C14]	< 10 nM	< 10 nM	10 to 50 nM	–
CCn1ncc2c(Nc3cc(C)[nH]n3)nc([C@H]3CC[C@](OC)(C(=O)N[C@@H](C)c4csc(-n5cc(F)cn5)n4)CC3)nc21 [Compound C15]	< 10 nM	< 10 nM	10 to 50 nM	–
CO[C@]1(C(=O)N[C@@H](C)c2csc(-n3cc(F)cn3)n2)CC[C@H](c2nc(Nc3cc(C)[nH]n3)c3cnn(C4CC4)c3n2)CC1 [Compound C16]	< 10 nM	< 10 nM	10 to 50 nM	–
CO[C@]1(C(=O)N[C@@H](C)c2ccc(-n3cc(F)cn3)nc2)CC[C@H](c2nc(Nc3cc(C)[nH]n3)c3cnn(CCF)c3n2)CC1 [Compound C18]	< 10 nM	< 10 nM	< 10 nM	–
CO[C@]1(C(=O)N[C@@H](C)c2cnc(-n3cc(F)cn3)cn2)CC[C@H](c2nc(Nc3cc(C)[nH]n3)c3cnn(C4CC4)c3n2)CC1 [Compound C20]	< 10 nM	< 10 nM	< 10 nM	–
CO[C@]1(C(=O)N[C@@H](C)c2cnc(-n3cc(F)cn3)cn2)CC[C@H](c2nc(Nc3cc(C)[nH]n3)c3cnn(C4COC4)c3n2)CC1 [Compound C21]	10 to 50 nM	10 to 50 nM	10 to 50 nM	–
CCCn1ncc2c(Nc3cc(C)[nH]n3)nc([C@H]3CC[C@](OC)(C(=O)N[C@@H](C)c4cnc(-n5cc(F)cn5)cn4)CC3)nc21 [Compound C22]	10 to 50 nM	10 to 50 nM	10 to 50 nM	–
CO[C@]1(C(=O)N[C@@H](C)c2cnc(-n3cc(F)cn3)cn2)CC[C@H](c2nc(Nc3cc(C)[nH]n3)c3cnn(CC(F)(F)F)c3n2)CC1 [Compound C23]	< 10 nM	< 10 nM	10 to 50 nM	RET inhibitory activity / inhibition effect (in words) (Ba/F3-KIF5B-RET; summary of Table 1, especially Ba/F3-KIF5B-RET-V804M and Ba/F3-KIF5B-RET-V804L): superior to that of Control Example 3
CO[C@]1(C(=O)N[C@@H](C)c2cnc(-n3cc(F)cn3)cn2)CC[C@H](c2nc(Nc3cc(C)[nH]n3)c3cn(CC(F)(F)F)nc3n2)CC1 [Control Example 3, reference compound]	10 to 50 nM	10 to 50 nM	> 50 nM	–
